Legend:
WI38 cells = test: SA-β-galactosidase colorimetric assay on senescent WI38; assay type: cell-based, Homo sapiens
Method: Previously treated cells were fixed according to the protocols established by the supplier (Cell Signaling). The images were acquired using an optical microscope (Leica) with 5× and 10× magnification (MAG) or the phase microscopy EVOS XL Core at 10× MAG and analyzed using the ImageJ software. The mean signal intensity was then normalized for the total number of cells.
β-galactosidase colorimetric assay. For cell cultures: Previously treated cells were fixed with the fixative solution for 10 min at RT according to the protocols established by the supplier (Senescence β-Galactosidase Staining Kit, #9860S, Cell Signaling, Danvers, MA, USA) Cells were then incubated with the substrate, X-gal, in a solution at pH 6, at 37°C, overnight (16 h) (Itahana et al. 2007). The images were acquired using an optical microscope (Leica, Wetzlar, Germany) with 5 and 10X magnification or the phase microscopy EVOS XL Core at 10X magnification. The images were analyzed using the ImageJ software, quantifying the colorimetric signal emitted by each cell. The mean signal intensity was then normalized for the total number of cells.

p16-3MR mice = test: Pilot study in aged p16-3MR mice (safety, bioluminescence, ear biopsy markers, cytokines); assay type: in vivo
Method: Sections were prepared from organs and ear biopsies from snap‐frozen tissues and mounted on SuperFrost Plus slides (VWR). SA‐β‐gal staining was performed according to the manufacturer's instructions for the Sigma‐Aldrich‐QIA117 staining kit (Sigma‐Aldrich). Nuclei were counterstained with Nuclear Fast Red (Sigma‐Aldrich), and images were acquired using a Zeiss AxioCam HRc mounted on a Leitz Laborlux S light microscope. The percentage of senescent cells was determined with QuPath v. 0.3.2 (Bankhead et al. [2017]).
All experiments were performed per the European Community Council Directives of 2010/63/UE. The pilot study (PS) investigated safety and potential senolytic efficacy, and the Extended study (ES) investigated functional changes, pathological phenotype, and the principal organ targeted by K5. Protocols were approved according to current Italian law (D.Lgs. n. 26/2014) by OPBA (animal care and health committee) of IRCCS INRCA and by the General Direction of Animal Health and Veterinary Drugs of the Italian Ministry of Health with authorization n°‐137/2021‐PR for PS and authorization n°‐370/2022‐PR for ES. In the PS of p16‐3MR mice (26 months), bioluminescence associated with p16‐expression was monitored before and after treatment, and the health of the mice was longitudinally studied. The ES used geriatric C57BL/6J mice (31 months). Clinical health and physical performance were analyzed before and after K5 treatment. Subsequently, the animals were euthanized, gross necropsies were performed, and organs were collected for further analysis. Detailed protocols are reported in the extended section.
Blood samples were collected from the right retroorbital plexus. Glucose (GLUC), creatinine (CREA), aspartate aminotransferase (AST/GOT), and alanine aminotransferase (ALT/GPT) were determined in EDTA‐plasma by using an automated analyzer (Cobas Mira, Roche) according to the manufacturer's instructions. Cytokines were measured in EDTA‐plasma using the ProcartaPlex Mouse Cytokine & Chemokine Panel 1, 26plex (Thermofisher) and read in the Luminex 200 instrument (Bio‐Rad), following the producer's recommendation.
Total RNA was extracted from ear biopsies using the RNeasy kit (Qiagen) according to the manufacturer's instructions and quantified by NanoDrop. β‐actin, p‐21, and p‐53 gene expression levels were analyzed on a BioRad iQ5 optical RT‐PCR (BioRad).
Experimental animals' bioluminescence imaging (BLI) was performed with an IVIS Spectrum system (PerkinElmer). Mice were intraperitoneally injected with Xenolight RediJect Coelenterazine h (PerkinElmer), and bioluminescent images were obtained with mice in the dorsal and ventral positions; the Living Image software quantified bioluminescence acquired by the CCD camera.
. To explore the safety of K5 and its potential impact on the aging process, p16-3MR mice were longitudinally studied in this pilot experiment. They were monitored once a month until natural death using a non-invasive protocol designed to assess their clinical health and physical performance across various functional domains associated with frailty. Additionally, to provide an initial overview of K5 effects on senescent cells, non-invasive and exploratory analyses (senescence markers in ear biopsies, p16 expression measured by in vivo bioluminescence assay, and circulating cytokine profile) were performed before the start of the treatment (T0) and after 20 days following the end of K5 administration (T1).
Circulating cytokines assay. Blood samples were collected from the right retroorbital plexus of anesthetized mice. Blood samples were deposited in serum separator gel tubes (Microvette CB300, Sarstedt) and centrifuged (1000 × g, 10 min) for serum separation. Concentrations of glucose (GLUC), creatinine (CREA), aspartate aminotransferase (AST/GOT), and alanine aminotransferase (ALT/GPT) were determined in EDTA-plasma by using an automated analyzer (Cobas Mira, Roche) according to the manufacturer's instructions. […]

Compound: Cc1ccccc1-n1c(=O)n(Cc2ccccc2)c(=O)c2[nH]cnc21 [Compound K5, 1-benzyl-3-(2-methylphenyl)-7H-purine-2,6-dione]
- reduced SA-β-gal+ cells (WI38 cells): 10%
- median lifespan of treated animals, females (p16-3MR mice; 10 mg/kg i.p., p16-3MR mice): 953 ± 35 days
- median lifespan of treated animals, males (p16-3MR mice; 10 mg/kg i.p., p16-3MR mice): 1097 ± 78 days
- adverse reactions, behavioral stereotypes, mortality after administration (p16-3MR mice; 10 mg/kg i.p., three injections over three consecutive days): did not induce any adverse reactions
- SA-β-gal activity in ear biopsies (p16-3MR mice; T1, 10 mg/kg i.p.): reduction
- circulating IL-1β (p16-3MR mice; T1 vs T0, 10 mg/kg i.p.): trend (p < 0.01) toward decreased
- circulating IL-6 (p16-3MR mice; T1 vs T0, 10 mg/kg i.p.): reduction
- p16 expression by in vivo bioluminescence, ventral and dorsal signals (p16-3MR mice; T1 vs T0, 10 mg/kg i.p.): significant reduction
- p21 mRNA expression in ear biopsies (p16-3MR mice; T1 vs T0, 10 mg/kg i.p.): decreasing trend
- p53 mRNA expression in ear biopsies (p16-3MR mice; T1 vs T0, 10 mg/kg i.p.): reduction in p53 expression at T1 was statistically significant

— article PMC12266748, “A Xanthine Derivative With Novel Heat Shock Protein 90‐Alpha Inhibitory and Senolytic Properties” (Aging Cell, 2025)
